Measured values from patent US20250099557A1, “ANTIBIOTIC PHARMACEUTICAL COMPOSITION CAPABLE OF SUBCUTANEOUS ADMINISTRATION” (SHANGHAI BAO PHARMACEUTICALS CO., LTD., priority 2021, published 2025).

Assays:
intestinal flora = test: Effects of administration routes on the diversity of intestinal flora in mice (16S rDNA sequencing, OTU); type: in vivo; details: C57BL/6 mice, feces
Source text: 12 SPF grade C57BL/6 mice were used for each antibiotic mode, and divided into two groups, each having 6 mice. The two groups include an oral administration group, and a subcutaneous administration group combined with recombinant human HAase. A blank control group including 6 mice was also set. The mice in the oral administration group were given the model antibiotic solution by oral gavage for five consecutive days. The mice in the subcutaneous administration group combined with recombinant human HAase were given the same dose of model antibiotic as that in the oral administration group by subcutaneous administration for five consecutive days. The feces of mice in each group were collected on the 1 st, 2nd, 3rd, 4th, 5th, 6th, 8th, 10th and 14th days after five consecutive days of administration, and stored at −80° C., for detecting the microbial diversity later. The fecal samples of each group were amplified and sequenced by 16S rDNA sequencing. After DNA extraction, PCR amplification and gene sequencing, the changes of intestinal bacterial diversity in each group of mice were analyzed. The relative species diversity of the test group was calculated, with the OUT value of the blank control group in each day as a reference, as shown in Table 33.

HAase = biological target: T1, HAase (Homo sapiens, UniProt P38567); test: Compatibility study of HAase and antibiotic in solution: HAase activity; type: biochemical; details: 15 min room temperature; for Final concentration of HAase (units/ml) 150: HAase added to 150 units/ml; for Final concentration of HAase (units/ml) 500: HAase added to 500 units/ml; for Final concentration of HAase (units/ml) 2000: HAase added to 2000 units/ml; for Final concentration of HAase (units/ml) 6000: HAase added to 6000 units/ml; for interference with the activity of HAase: antibiotic and HAase in physiological saline
T1 construct: made in house
T1 sequence (P38567 36-482): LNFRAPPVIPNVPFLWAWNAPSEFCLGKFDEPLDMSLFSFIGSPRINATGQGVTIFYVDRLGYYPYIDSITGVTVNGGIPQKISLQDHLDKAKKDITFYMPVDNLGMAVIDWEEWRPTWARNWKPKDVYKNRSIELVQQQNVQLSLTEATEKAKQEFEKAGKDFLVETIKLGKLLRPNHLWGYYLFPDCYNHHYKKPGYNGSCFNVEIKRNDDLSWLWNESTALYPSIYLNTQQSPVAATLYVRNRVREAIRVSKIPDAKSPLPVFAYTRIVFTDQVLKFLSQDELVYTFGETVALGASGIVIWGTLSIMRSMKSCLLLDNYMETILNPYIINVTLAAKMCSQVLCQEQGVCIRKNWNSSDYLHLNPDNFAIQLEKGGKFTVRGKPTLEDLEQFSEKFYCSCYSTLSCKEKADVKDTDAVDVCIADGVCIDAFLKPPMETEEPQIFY
Method: “HAase activity refers to the ability of HAase to catalytically cleave hyaluronic acid. The Chinese Pharmacopoeia provides a method for determining the HAase activity, indirectly by measuring the amount of remaining higher-molecular-weight hyaluronic acid substrate after the enzyme is allowed to catalytically cleave hyaluronic acid at 37° C. for 30 min. A standard reference solution can be used in the assay to determine the relative activity (in units) of any HAase. In-vitro assays for the determination of HAase are known in the art. Exemplary assays include micro-turbidimetric assay described below, which indirectly measures the cleavage of hyaluronic acid by HAase by detecting an insoluble precipitate formed when uncleaved hyaluronic acid binds to serum albumin. The reference standard can be used, for example, to generate a standard curve, so as to determine the activity of the tested HAase in units.
(§1) The compatibility of HAase and an antibiotic was studied by preparing a solution comprising the two substances. A dry Meropenem power for injection was dissolved in physiological saline to give a concentration of 5 mg/ml and 50 mg/ml, and then HAase was added to give a final concentration of 150, 500, 2000, and 6000 units/ml respectively. After preparation, the solution was left to stand at room temperature for 15 min. The appearance of the solution was observed, and the concentration of HAase was determined.
as §1, with “dry Ceftriaxone sodium” for “dry Meropenem”, “of 50” for “of 5”, “and 250” for “and 50”
as §1, with “dry Azithromycin” for “dry Meropenem”, “of 10” for “of 5”, “and 100” for “and 50”
as §1, with “dry Cefradine powder” for “dry Meropenem power”, “of 50” for “of 5”, “and 250” for “and 50”
as §1, with “dry Teicoplanin powder” for “dry Meropenem power”, “of 10” for “of 5”, “and 70” for “and 50”
as §1, with “dry Ceftazidime powder” for “dry Meropenem power”, “of 20” for “of 5”, “and 200” for “and 50”, “min.” for “min. The appearance of the solution was observed, and the concentration of HAase was determined.”

[1] = in combination with recombinant human HAase for subcutaneous administration, five consecutive days, D1 after administration
[2] = in combination with recombinant human HAase for subcutaneous administration, five consecutive days, D2
[3] = in combination with recombinant human HAase for subcutaneous administration, five consecutive days, D3
[4] = in combination with recombinant human HAase for subcutaneous administration, five consecutive days, D4
[5] = in combination with recombinant human HAase for subcutaneous administration, five consecutive days, D5
[6] = in combination with recombinant human HAase for subcutaneous administration, five consecutive days, D6
[7] = in combination with recombinant human HAase for subcutaneous administration, five consecutive days, D8
[8] = in combination with recombinant human HAase for subcutaneous administration, five consecutive days, D10
[9] = in combination with recombinant human HAase for subcutaneous administration, five consecutive days, D14
[10] = oral administration for five consecutive days, D1 after administration
[11] = oral administration for five consecutive days, D2
[12] = oral administration for five consecutive days, D3
[13] = oral administration for five consecutive days, D4
[14] = oral administration for five consecutive days, D5
[15] = oral administration for five consecutive days, D6
[16] = oral administration for five consecutive days, D8
[17] = oral administration for five consecutive days, D10
[18] = oral administration for five consecutive days, D14
[19] = antibiotic 50 mg/ml in physiological saline
[20] = antibiotic 250 mg/ml in physiological saline
[21] = antibiotic 20 mg/ml in physiological saline
[22] = antibiotic 200 mg/ml in physiological saline

SMILES | Relative abundance of OUT (operational taxonomic units) (intestinal flora; [1]) | Relative abundance of OUT (operational taxonomic units) (intestinal flora; [2]) | Relative abundance of OUT (operational taxonomic units) (intestinal flora; [3]) | Relative abundance of OUT (operational taxonomic units) (intestinal flora; [4]) | Relative abundance of OUT (operational taxonomic units) (intestinal flora; [5]) | Relative abundance of OUT (operational taxonomic units) (intestinal flora; [6]) | Relative abundance of OUT (operational taxonomic units) (intestinal flora; [7]) | Relative abundance of OUT (operational taxonomic units) (intestinal flora; [8]) | Relative abundance of OUT (operational taxonomic units) (intestinal flora; [9]) | Relative abundance of OUT (operational taxonomic units) (intestinal flora; [10]) | Relative abundance of OUT (operational taxonomic units) (intestinal flora; [11]) | Relative abundance of OUT (operational taxonomic units) (intestinal flora; [12]) | Relative abundance of OUT (operational taxonomic units) (intestinal flora; [13]) | Relative abundance of OUT (operational taxonomic units) (intestinal flora; [14]) | Relative abundance of OUT (operational taxonomic units) (intestinal flora; [15]) | Relative abundance of OUT (operational taxonomic units) (intestinal flora; [16]) | Relative abundance of OUT (operational taxonomic units) (intestinal flora; [17]) | Relative abundance of OUT (operational taxonomic units) (intestinal flora; [18]) | interference with the activity of HAase (HAase) | also measured
CC1=C(C(=O)O)N2C(=O)[C@@H](NC(=O)[C@H](N)C3=CCC=CC3)[C@H]2SC1 [Cefradine] | 35.5% | 37.2% | 36.3% | 36.2% | 36.2% | 37.1% | 42.1% | 42.9% | 48.7% | 24.4% | 23.6% | 20.4% | 22.6% | 20.7% | 24.3% | 25.8% | 28.6% | 31.9% | does not interfere with the activity of HAase | Final concentration of HAase (units/ml) 150 (HAase; [19]): 162 units/ml; Final concentration of HAase (units/ml) 500 (HAase; [19]): 492 units/ml; Final concentration of HAase (units/ml) 2000 (HAase; [19]): 2009 units/ml; Final concentration of HAase (units/ml) 6000 (HAase; [19]): 6126 units/ml; Final concentration of HAase (units/ml) 150 (HAase; [20]): 161 units/ml; Final concentration of HAase (units/ml) 500 (HAase; [20]): 482 units/ml; Final concentration of HAase (units/ml) 2000 (HAase; [20]): 2080 units/ml; Final concentration of HAase (units/ml) 6000 (HAase; [20]): 5797 units/ml
CC(C)(O/N=C(\C(=O)N[C@@H]1C(=O)N2C(C(=O)[O-])=C(C[n+]3ccccc3)CS[C@H]12)c1csc(N)n1)C(=O)O [Ceftazidime] | 35.5% | 34.0% | 34.3% | 33.7% | 34.3% | 35.1% | 41.6% | 42.3% | 51.3% | 22.8% | 20.9% | 20.4% | 21.1% | 19.2% | 22.3% | 26.8% | 29.6% | 32.5% | does not interfere with the activity of HAase | Final concentration of HAase (units/ml) 150 (HAase; [21]): 145 units/ml; Final concentration of HAase (units/ml) 500 (HAase; [21]): 501 units/ml; Final concentration of HAase (units/ml) 2000 (HAase; [21]): 2026 units/ml; Final concentration of HAase (units/ml) 6000 (HAase; [21]): 6027 units/ml; Final concentration of HAase (units/ml) 150 (HAase; [22]): 148 units/ml; Final concentration of HAase (units/ml) 500 (HAase; [22]): 488 units/ml; Final concentration of HAase (units/ml) 2000 (HAase; [22]): 2001 units/ml; Final concentration of HAase (units/ml) 6000 (HAase; [22]): 5981 units/ml
